Values of other authors, collected in paper PMC6168745 (Diabetes, Obesity & Metabolism, 2016).

Experiments:
[1] = test system: people with type 2 diabetes
[2] = test system: participants with type 2 diabetes; conditions: + insulin glargine + metformin; CGM

Substance	MAGE, large amplitude of glycaemic excursions and within-day s.d. of mean daily glucose ([1]; once daily, comparative trials with insulin)	MAGE from baseline ([1]; small uncontrolled study of Japanese people with type 2 diabetes)	glucose CV and MAGE compared with prandial insulin [2]
liraglutide	significantly reduced	significantly reduced	–
exenatide [Twice‐daily exenatide]	–	–	significantly reduced
